Assay results from article PMC4992173, “Divergent synthesis and identification of the cellular targets of deoxyelephantopins” (Nature Communications, 2016).

Tests used:
wt PPARG = molecular target: T1, wt PPARG (Homo sapiens, UniProt P37231); assay: Gel-based competitive IC50 determination in 293T lysates: WT PPARγ; assay type: binding; settings: wt PPARG expressed in 293T cells, lysate, 1 h, then 10 μM 24c-Cy3
T1 construct: host or cells: 293T
Excerpt: Finally, we sought to understand the molecular basis for PPARγ binding by the synthetic analogues of deoxyelephantopin through identification of the precise covalently modified amino acid site. There is literature precedent for oxidized fatty acids containing an α,β-unsaturated ketone to form a covalent bond with a cysteine in the ligand-binding site of PPARγ[53]. More recently, synthetic ligands binding reversibly to a distinct site were identified. […] Bearing in mind that the structurally simplified, and thus less prone to MS/MS fragmentation, probe 23c binds PPARγ as efficiently as 24c (Supplementary Fig. 13), we treated the recombinant nuclear receptor with the former compound, digested the protein and analysed the resulting peptides by LC–MS/MS. […]
Supplementary figure 21: Top: Fluorescence gels corresponding to the IC50 curves presented in the main text Figure 8b. γ fluorescence signal in percentage after 19a treatment. […]
Biological materials. […] Protein concentration was determined using the Bradford assay (Bio-Rad).
Cell culture and preparation of lysates. […] Cells were lysed by sonication to form cell lysates and protein concentration was determined using the Bradford […]

PPARγ = molecular target: T2, PPARγ (Homo sapiens, UniProt P37231); assay: Gel-based in situ competition of PPARγ overexpressed in HeLa cells; assay type: cell-based; parameters: host or cells: HeLa; settings: HeLa cells expressing PPARγ, 20 µM in situ 4 h, then 10 µM 24c-Cy3
T2 sequence (P37231 1-505): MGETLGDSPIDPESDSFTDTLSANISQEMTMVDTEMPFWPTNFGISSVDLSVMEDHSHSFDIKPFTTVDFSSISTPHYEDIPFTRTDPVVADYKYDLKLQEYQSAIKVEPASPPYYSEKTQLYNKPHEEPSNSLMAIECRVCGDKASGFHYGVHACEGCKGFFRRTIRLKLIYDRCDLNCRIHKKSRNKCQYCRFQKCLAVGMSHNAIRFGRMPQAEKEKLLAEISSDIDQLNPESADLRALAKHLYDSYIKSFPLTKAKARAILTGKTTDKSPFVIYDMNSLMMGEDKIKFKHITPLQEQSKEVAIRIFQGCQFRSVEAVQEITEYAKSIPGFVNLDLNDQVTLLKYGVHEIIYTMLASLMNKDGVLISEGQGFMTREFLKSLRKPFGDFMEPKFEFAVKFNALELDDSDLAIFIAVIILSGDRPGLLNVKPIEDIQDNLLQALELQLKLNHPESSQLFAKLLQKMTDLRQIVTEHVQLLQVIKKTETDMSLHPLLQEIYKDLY

Structure (SMILES)	IC50 (wt PPARG) [µM]	competition of PPARγ labelling by 24c-Cy3 (PPARγ)
C=C(C)C(=O)O[C@H]1CC2=C[C@H](C/C=C\[C@H]3OC(=O)C(=C)[C@H]13)OC2=O [19a]	19	
C=C(C)C(=O)O[C@H]1CC2=C[C@@H](C/C(C)=C/[C@H]3OC(=O)C(=C)[C@H]13)OC2=O [deoxyelephantopin]		efficient competition
